Source: publication PMC11846858, “Macrocarpal I induces immunogenic cell death and synergizes with immune checkpoint inhibition by targeting tubulin and PARP1 in colorectal cancer” (Cell Death Discovery, 2025)

Biological target: T1, Tubulin Beta 2B Class IIb (TUBB2B) (Homo sapiens, UniProt Q9BVA1)
T1 construct: human TUBB2B in pET28a, N-terminal His-tag, expressed in E. coli BL21 (DE3) RIL
Assay: ITC with purified His-tagged TUBB2B; supported by DARTS in SW620 and DLD1 lysates
Assay type: binding

T1 sequence (Q9BVA1 whole entry): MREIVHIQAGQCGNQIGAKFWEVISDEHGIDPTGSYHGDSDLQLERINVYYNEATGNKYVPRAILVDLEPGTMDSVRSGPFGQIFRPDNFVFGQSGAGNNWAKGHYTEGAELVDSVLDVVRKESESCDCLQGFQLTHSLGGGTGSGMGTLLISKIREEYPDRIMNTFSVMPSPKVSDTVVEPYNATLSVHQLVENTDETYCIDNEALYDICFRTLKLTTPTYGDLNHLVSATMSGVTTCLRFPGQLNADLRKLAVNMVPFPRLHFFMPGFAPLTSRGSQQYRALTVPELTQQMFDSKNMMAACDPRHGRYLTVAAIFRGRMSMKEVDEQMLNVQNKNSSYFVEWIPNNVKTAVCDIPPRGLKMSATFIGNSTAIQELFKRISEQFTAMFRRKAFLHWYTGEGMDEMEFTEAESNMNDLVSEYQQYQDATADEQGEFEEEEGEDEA

**Q.** `CC(C)C[C@H](c1c(O)c(C=O)c(O)c(C=O)c1O)[C@@H]1CC[C@@](C)(O)[C@@H]2C[C@H](C(C)(C)O)CC[C@]21C` [Macrocarpal I] was tested. Which Kd did it give?
**A.** 1540 nM
